Article PMC9101642 (Molecules, 2022)
Marks after values point to notes of the source that are not given here.

Legend:
[1] = tested on: progesterone receptor (PR); test: ERα functional antagonism cell assay (PR as biomarker) in MCF-7; type: cell-based; details: Homo sapiens, MCF7; progesterone receptor as biomarker for ERα antagonism in MCF-7
[2] = tested on: p53 promoter activity (p21 promoter); test: qChIP of ERα-p53 interaction on the p21 promoter in MCF-7; type: cell-based, human
MCF-7 cells = test: Cell cycle distribution by flow cytometry; type: cell-based, human; details: 24 h
[3] = tested on: MNU-induced breast cancer; test: In vivo anticancer screening, MNU-induced mammary tumorigenesis; design: species or system female Wistar rats
[4] = Plasma protein binding determination; type: in vitro ADME, rat; details: rat plasma, 37 °C, read-out: Rat PPB (%free)
How it was run: (§1)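 Mammary tumours induced in rats by MNU 50 mg/kg i.p. at day 50; after two weeks, compounds given orally at 5 or 50 mg/kg once daily for six weeks. Serum AST, ALT (340 nm), ALP (405 nm) and bilirubin measured; liver homogenate GSH, CAT, MDA by colorimetry; plasma binding by ultrafiltration at 37°C with BCA protein read-out.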

[5] = Serum biochemical markers after treatment of MNU-induced rats; type: in vivo, Wistar rats; design: TBC: unit not given here; details: for ALP (A/L) / ALT (A/L) / AST (U/L) / γ-GT (U/L): serum; for TBC: total bilirubin content
How it was run: as §1

[6] = Liver oxidative stress markers after treatment of MNU-induced rats; type: in vivo, Wistar rats; details: liver; for CAT: catalase activity; for GSH: reduced glutathione; for SOD (U/mg): superoxide dismutase activity; for TP: total protein content
How it was run: as §1

[7] = tested on: MNU-induced breast cancer tissue; test: Histopathology of breast sections; type: in vivo, Wistar rats
How it was run: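 Rats with MNU-induced breast cancer were given selected leads at two concentrations. Breast tissue was examined histopathologically for lobuloalveolar units and epithelial changes, with slides photographed at 200x.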

[8] = Pharmacokinetics study, oral bioavailability; details: rat
[9] = MTT antiproliferative assay (neutral control); details: human
[10] = dose 50 mg/kg (compounds per os after MNU; MNU alone i.p.)

Row | Compound | IC50 [1] | p53 promoter activity, fold higher than the one provoked by Ral ([2]; higher concentration (1 nM)) | p53 promoter activity, fold higher than the one provoked by Ral ([2]; lower concentration (0.1 nM)) | Cell Cycle (%) G0/G1 (MCF-7 cells; 0.1 nM) | Cell Cycle (%) G2/M (MCF-7 cells; 0.1 nM) | Cell Cycle (%) S (MCF-7 cells; 0.1 nM) | Cell Cycle (%) G0/G1 (MCF-7 cells; 1 nM) | Cell Cycle (%) G2/M (MCF-7 cells; 1 nM) | Cell Cycle (%) S (MCF-7 cells; 1 nM) | Tumor Burden (week) ([3]; dose 5 mg/kg per os after MNU) | Tumor Latency (week) ([3]; dose 5 mg/kg per os after MNU) | Tumor Volume (mm^3) ([3]; dose 5 mg/kg per os after MNU) | Tumor Burden (week) [3, 10] | Tumor Latency (week) [3, 10] | Tumor Volume (mm^3) [3, 10] | fraction unbound at 5 mg/kg bwt [4] | fraction unbound at 50 mg/kg bwt [4] | ALP (A/L) ([5]; dose 5 mg/kg) | ALT (A/L) ([5]; dose 5 mg/kg) | AST (U/L) ([5]; dose 5 mg/kg) | other results
1 | CNCCOc1ccc(C(=O)O[C@@H]2/C=C/C(=O)O[C@@H](O)CCC/C=C/[C@@H]3C[C@H](O)C[C@H]32)cc1C(C)=O [Compound 3DPQ-1, (1R,2E,6R,10E,11aS,13S,14aR)-6,13-dihydroxy-4-oxo-4,6,7,8,9,11a,12,13,14,14a-decahydro-1H-cyclopenta[f][1]oxacyclotridecin-1-yl 3-acetyl-4-(2-(methylamino)ethoxy)benzoate] | > 100 nM | 0.66 fold | 0.733 fold | 72.62 ± 2.47 *^,†,‡,§ % | 17.40 ± 3.63 *^,†,‡,§ % | 9.98 ± 1.65 *^,†,‡,§ % | 75.08 ± 2.13 *^,†,‡,§ % | 14.24 ± 2.54 *^,†,‡,§ % | 10.69 ± 1.42 *^,†,‡,§ % | 3.38 ± 0.31 ^i,*^,†,‖ week | 9 * week | 1.09 ± 0.23 *^,†,‡,‖ mm^3 | 2.04 ± 0.35 *^,†,§,┴ week | 12 *^,† week | 0.68 ± 0.35 *^,†,§,┴ mm^3 | 0.0133 | 0.0122 | 104.53±0.75 A/L | 51.63±0.32 A/L | 44.78±0.61 U/L | γ-GT (U/L) ([5]; dose 5 mg/kg): 13.54±1.74 U/L; ALP (A/L) ([5]; dose 50 mg/kg): 107.52±0.6 A/L; ALT (A/L) ([5]; dose 50 mg/kg): 53.43±1.34 A/L; AST (U/L) ([5]; dose 50 mg/kg): 49.54±0.65 U/L; γ-GT (U/L) ([5]; dose 50 mg/kg): 16.43±0.76 U/L; TBC ([5]; dose 5 mg/kg): 15.43±0.32; TBC ([5]; dose 50 mg/kg): 19.41; CAT ([6]; dose 5 mg/kg): 16.21±0.77; CAT ([6]; dose 50 mg/kg): 17.35±0.56; TBARS ([6]; dose 5 mg/kg): 0.96 nmol/mg; TBARS ([6]; dose 50 mg/kg): 0.65 nmol/mg; GSH ([6]; dose 50 mg/kg): 9.35 ± 0.45 mg/g; SOD (U/mg) ([6]; dose 5 mg/kg): 7.65±0.63 U/mg; SOD (U/mg) ([6]; dose 50 mg/kg): 8.83±0.51 U/mg; TP ([6]; dose 50 mg/kg): 37.21 g/L; breast section histopathology ([7]; 5 mg/kg of bwt): lobuloalveolar unit (LaU) and cuboidal epithelial cells (CE); breast section histopathology ([7]; 50 mg/kg of bwt): lobuloalveolar unit (LaU) and cuboidal epithelial cells (CE); BIO ([8]; oral 5 mg/kg): 91; BIO ([8]; oral 50 mg/kg): 94; IC50 at 48 h [9]: > 0.1 µM
2 | CC(=O)c1cc(C(=O)O[C@@H]2/C=C/C(=O)O[C@@H](O)CCC/C=C/[C@@H]3C[C@H](O)C[C@H]32)ccc1OCCN(C)C [Compound 3DPQ-2, (1R,2E,6R,10E,11aS,13S,14aR)-6,13-dihydroxy-4-oxo-4,6,7,8,9,11a,12,13,14,14a-decahydro-1H-cyclopenta[f][1]oxacyclotridecin-1-yl 3-acetyl-4-(2-(dimethylamino)ethoxy)benzoate] | > 100 nM | 0.66 fold | 0.733 fold | 73.64 ± 5.32 *^,†,‡,§ % | 14.48 ± 2.54 *^,†,‡,§ % | 11.88 ± 0.87 *^,†,‡,§ % | 76.10 ± 1.43 *^,†,‡,§ % | 11.32 ± 3.25 *^,†,‡,§ % | 12.59 ± 1.57 *^,†,‡,§ % | 3.34 ± 0.57 *^,†,‖ week | 9 * week | 0.96 ± 0.41 *^,†,‡,‖ mm^3 | 1.98 ± 0.45 *^,†,§,┴ week | 12 *^,† week | 0.69 ± 0.23 *^,†,§,┴ mm^3 | 0.0115 | 0.0124 | 98.53±0.14 A/L | 46.89±0.74 A/L | 56.43±0.21 U/L | γ-GT (U/L) ([5]; dose 5 mg/kg): 16.52±0.42 U/L; ALP (A/L) ([5]; dose 50 mg/kg): 119.47±0.13 A/L; ALT (A/L) ([5]; dose 50 mg/kg): 49.47±0.64 A/L; AST (U/L) ([5]; dose 50 mg/kg): 59.54±0.32 U/L; γ-GT (U/L) ([5]; dose 50 mg/kg): 17.35±0.56 U/L; TBC ([5]; dose 5 mg/kg): 16.43; TBC ([5]; dose 50 mg/kg): 17.72; CAT ([6]; dose 5 mg/kg): 15.54±0.51; CAT ([6]; dose 50 mg/kg): 17.31±0.63; TBARS ([6]; dose 5 mg/kg): 0.56 nmol/mg; TBARS ([6]; dose 50 mg/kg): 0.75 nmol/mg; GSH ([6]; dose 5 mg/kg): 9.96 mg/g; GSH ([6]; dose 50 mg/kg): 10.35 mg/g; SOD (U/mg) ([6]; dose 5 mg/kg): 9.63±0.56 U/mg; SOD (U/mg) ([6]; dose 50 mg/kg): 12.3±0.36 U/mg; TP ([6]; dose 50 mg/kg): 41.54 g/L; breast section histopathology ([7]; 5 mg/kg of bwt): lobuloalveolar unit (LaU) and cuboidal epithelial cells (CE); BIO ([8]; oral 5 mg/kg): 92; BIO ([8]; oral 50 mg/kg): 94; IC50 at 48 h [9]: > 0.1 µM
